Data set [1] is described as follows: Emulsification of paraffin and rapeseed oil by transalkylidenation MSLs. The data set is classed as physicochemical. To be noted: for change in emulsions during a 6-week aging period: 1 weight % surfactant, water:paraffin oil 1:1 (v/v), FIG. 22. As to the method:
Mixtures of oil (paraffin or rapeseed) and water, in a 1:1 volume ratio, were prepared. MSL compounds 39, 40, and 41 at 1 weight % relative to water were each assessed as emulsifiers. Each mixture was agitated for 5 min using a homogenizer. […] This is in contrast to the studies above where sophorolipid esters and amides consisting of one hydrophobic arm formed oil-in-water mixtures. For compound 43 that has relatively more hydrophobic character than MSL compounds 39. 40 and 41, paraffin oil and water (1:1 volume ratio) were combined and MSL compound 43 (2 weight % to water) was then added. The mixture was agitated by a homogenizer for 5 minutes. […] The emulsion was stable during the 3 weeks it was monitored (FIG. 24). […] The cloudy parts are emulsified water, and the continuous phase is the oil. […] Condition: 15% (v/v) of water in rapeseeds oil, 1 weight % (relative to water) of compound 40 were mixed and stirred using a homogenizer for 5 minutes (scale bar: 100 μm).

Data set [2] is described as follows: Lemon oil solubilization, sonication, droplet size by dynamic light scattering. To be noted: for average droplet sizes after one month: lemon oil emulsions; for Emulsion Droplet Size / Emulsion Droplet Size, bottom emulsion layer / Emulsion Droplet Size, top emulsion layer: 1 weight-%. The format is physicochemical. As to the method: MSL's used in this example are SL-hexyl ester (16), SL-octyl ester SL (17), and SL-dodecyl ester (18). To test the MSL capacity for lemon oil solubilization, the volume ratio of water to lemon oil, the concentration of surfactant, and the homogenization time (using a sonicator as the means of homogenization) were varied. Concentration of surfactant is calculated on a w/w basis relative to the mass of water being used. To form emulsions, the MSL or other surfactant is first dissolved in the water, oil is added to the solution, and finally the contents of the water/surfactant+oil system is sonicated. Subsequently, the emulsion is allowed to settle for 24 hours at 25° C. before measurements or visual observations are made.
To evaluate the stability of lemon oil solubilization, photographs of emulsions were recorded daily (after the initial 24 hours). Visual observations consisted of assessing solution clarity, extent of creaming and whether oil separation occurs. After selected time periods measurement of emulsion droplet size was performed by dynamic light scattering, which gives an average droplet size in the solution. […] If the emulsion had creamed (separated into two discreet emulsion layers) the average droplet size for each emulsion layer was determined. The results of this study are listed in Table 6, where the first number represents average droplet size in the top emulsion layer and the second represents the average droplet size in the bottom emulsion layer. […] A better performing emulsifier for this study is defined as functioning to form emulsions with smaller average particle size after the aging period.

Data set [3] is described as follows: Crude oil emulsification activity (turbidity at 610 nm). Conditions: emulsifier 1 mg/mL. The procedure:
Emulsification activity was assessed using Louisiana Crude, Arabian Light Crude, and Prudhoe Bay Crude as the oil phase. A 2 mL solution with emulsifier concentration of 1 mg/mL was prepared. A crude oil (10 mg) was added to the emulsifier aqueous solution, the mixture was vortexed for one minute and the emulsified mixture was allowed to stand for 20 minutes. Emulsification activity was determined by measuring turbidity of the emulsion mixture in a spectrophotometer at 610 nm. The results obtained using SL-ethyl ester, SL-butyl ester, the natural sophorolipid mixture and Triton X-100 as emulsifiers are expressed as D610 and are listed in Table 8. […] Furthermore, a remarkable improvement in emulsification activity was obtained for SL-butyl ester relative to the natural sophorolipid mixture. These comparative results for emulsification of Louisiana Crude, Arabian Light Crude, and Prudhoe Bay Crude oil phase could not be anticipated by one skilled in the art.

Data set [4] in a line: Crude oil clearing/displacement activity. Conditions: 20 μL of 1 mg/mL solution. As to the method:
Oil cleaning assays were performed using Louisiana Crude, Arabian Light Crude, and Prudhoe Bay Crude as the oil phase. In one study, the oil clearing/displacement activity of MSLs were assessed using a crude oil layer on top of sea water in order to simulate oil spill type conditions. Sea water (20 mL) was transferred to plastic Petri dishes and 20 μL of a crude oil type was added on top of the water to create an oil layer. Subsequently, a 20 μL aliquot of MSL solution (1 mg/mL) was added dropwise to the top of the oil layer. The instantaneous formation of an oil clearing zone as well as the diameter of the clearing zone was determined as a function of the dispersant used. […] Furthermore, the oil displacement activity of SL-ethyl ester and SL-butyl ester was slightly higher than Triton-X-100 for Arabian Light crude.

The nature of data set [5]: Emulsion stability based on phase separation. The format is physicochemical. As to the method:
The emulsion was obtained by homogenizing the oil and water mixture and was allowed to settle at room temperature for 24 hours. […] Then, this mixture was homogenized at 13,000 rpm for 2 minutes. Thereafter, the resulting emulsion was left unagitated at 25° C. for 24 hours. Surfactants which give a larger emulsion phase are denoted as having higher emulsion effectiveness (Process Safety and Environment protection, 2005, 83, 38-46). […] Thus, unexpectedly, that longer alkyl chains, at least up to butyl and hexyl, provided improved interfacial stability at the paraffin oil/water interface. […] Apparently, ester bonds of SL-esters are less disruptive to organization at the oil water interface than amide bonds of SL-amides. […] The acidic SL (3) gave an 8% emulsion layer, much lower than the MSL examples given herein. Similarly, the natural SL (1) mixture gave a 10% emulsion layer. This performance is also far below that of SL-butyl amide (24), hexyl amide (25), butyl ester (8) and hexyl ester (16).
After homogenized at 13,000 rpm for 2 minutes, the emulsions were kept at room temperature and separation of the respective oil, emulsion and water layers was recorded for up to 1 month.

Data set [6] in a line: Emulsion droplet size distribution, Coulter LS 230 analyzer. The data set is classed as physicochemical. Conditions: paraffin oil-to-water 7:3 v/v, 25° C. As to the method: Emulsified oil droplet size (average and standard deviation) was measured after suitable dilution of the emulsion phase using a Coulter LS 230 analyzer. […] Relative to natural and lactonic SL, selected MSLs show improved properties as emulsifiers on paraffin oil.
After being aged for 3-months, emulsified oil droplet size (average and standard deviation) was measured after suitable dilution of the emulsion phase using a Coulter LS 230 analyzer and the results are listed in Table 5. […] However, increasing the surfactant concentration from 1 to 2% did result in substantially smaller emulsion-phase droplet sizes. […] This is evidence that MSL's can stabilize oil phases greatly decreasing their tendency to undergo coalescence. […] It follows that the results of 3-month aging studies support the utility of selected MSLs for formation and stabilization of oil-in-water emulsions of paraffin oil phases. One skilled in the art would expect that the ability of these MSLs to stabilize paraffin oil phases teaches that they would also stabilize oil phases of similar structure.

The mark [7] stands for this setting: paraffin oil and water 1:1 volume ratio, 2 weight % to water.
[8] abbreviates: lemon oil/water 1/99, sonication 60 sec, 1 Week.
The mark [9] stands for this setting: lemon oil/water 1/99, sonication 60 sec, 5 Weeks.
Setting [10] is: lemon oil/water 5/95, sonication 60 sec, 1 Week.
Where [11] appears, read: lemon oil/water 5/95, sonication 60 sec, 5 Weeks.
Setting [12] is: Arabian Light Crude on sea water.
The mark [13] stands for this setting: oil (paraffin or rapeseed) and water 1:1 volume ratio, 1 weight % relative to water.
Setting [14] is: lemon oil/water 1/99, sonication 120 sec, 1 Week.

As to `CCCCCCCCCCCCOC(=O)/C=C/CCCCCCCC(=O)OC1C(COC(C)=O)OC(OC2C(OC(C)CCCCCC/C=C/C(=O)OCCCCCCCCCCCC)OC(COC(C)=O)C(O)C2O)C(O)C1O` (stereo not drawn) [Compound 43], the “change in emulsions during a 6-week aging period” value in data set [1] is given as “no substantial change”. Moreover, in data set [1] (setting [7]), the emulsion type result is given as “water-in-oil emulsion” and the “time the emulsion was stable (monitored period)” value was at least 3 weeks.

As to `CCCCCCCCOC(=O)CCCCCCCC=CCCCCCCC(C)OC1OC(CO)C(O)C(O)C1OC1OC(CO)C(O)C(O)C1O` (stereo not drawn) [Compound 17, SL-octyl ester], in data set [2], the “average droplet sizes after one month” value is recorded as “below 1 μm”. Also, the “Emulsion Droplet Size” value in data set [2] (setting [8]) was determined as 92 nm; in data set [2] (lemon oil/water 1/99, sonication 60 sec, 2 Days) it was 52 nm; in data set [2] (setting [9]) it was 183 nm; in data set [2] (setting [10]), 179 nm; in data set [2] (lemon oil/water 5/95, sonication 60 sec, 2 Days) it was 167 nm; in data set [2] (setting [11]) it was 325 nm.

Take Triton X-100 [reference compound]: the “Emulsification activity (D610)” value stood at 0.17 in data set [3] (Arabian Crude), 0.28 in data set [3] (Louisiana Crude) and 0.49 in data set [3] (Prudhoe Crude). For the same molecule, the “Oil displacement activity (diameter of the clearing zone)” value in data set [4] (setting [12]) stood at 6.05 ± 0.07 cm; in data set [4] (Louisiana Crude on sea water), 5.5 ± 0.21 cm; in data set [4] (Prudhoe Bay Crude on sea water), 7.8 ± 0.07 cm.

Consider `CCCCCCCCCCCCOC(=O)CCCCCCCC=CCCCCCCC(C)OC1OC(CO)C(O)C(O)C1OC1OC(CO)C(O)C(O)C1O` (stereo not drawn) [Compound 18, SL-dodecyl ester], for which, in data set [2], the “average droplet sizes after one month” value was “below 1 μm”. The “Emulsion Droplet Size” value in data set [2] (setting [8]) was determined as 238 nm; in data set [2] (setting [9]), 277 nm. For the same molecule, the figures for the “Emulsion Droplet Size, bottom emulsion layer” value in data set [2] (setting [10]) and in data set [2] (setting [11]) were 327 nm and 208 nm, respectively. The “Emulsion Droplet Size, top emulsion layer” value in data set [2] (setting [10]) came to 389 nm; in data set [2] (setting [11]) it was 551 nm.

As for `COC(=O)/C=C/CCCCCCCC(=O)OC1C(COC(C)=O)OC(OC2C(OC(C)CCCCCC/C=C/C(=O)OC)OC(COC(C)=O)C(O)C2O)C(O)C1O` (stereo not drawn) [Compound 39], in data set [1], the “change in emulsions during a 6-week aging period” value was “no substantial change”. Moreover, in data set [1] (setting [13]), the emulsion type result is “water-in-oil emulsions” and the “time the emulsions were stable (monitored period)” value (shortened to “time the emulsions were stable”) is at least 6 weeks.

Consider `CCOC(=O)/C=C/CCCCCCCC(=O)OC1C(COC(C)=O)OC(OC2C(OC(C)CCCCCC/C=C/C(=O)OCC)OC(COC(C)=O)C(O)C2O)C(O)C1O` (stereo not drawn) [Compound 40], for which the “emulsion stability after 6 weeks” value in data set [1] (15% (v/v) of water in rapeseeds oil, 1 weight % relative to water) is reported as “emulsion remained stable”. Moreover, in data set [1] (setting [13]), the emulsion type result is recorded as “water-in-oil emulsions” and the “time the emulsions were stable” value is at least 6 weeks.

With `CCCCCCCCCCCCOS(=O)(=O)[O-].[Na+]` [SDS, Sodium dodecyl sulfate, reference compound], in data set [5] (oil/water 7/3, 2%-by-weight, start of aging), the “emulsion layer, start” value is given as 90%. The emulsion layer percentage in data set [5] (paraffin oil/water 5/5, 2%-by-weight emulsifier, after 24 hours at 25° C.) is on record as 70%. Moreover, the Average droplet size in data set [6] (0.5 weight %, 24 hours) is listed as 2.3 ± 0.2 μm; in data set [6] (0.5 weight %, aged 3-months) it was 3.1 ± 0.1 μm; in data set [6] (1 weight %, 24 hours) it was 2.1 ± 0.1 μm; in data set [6] (1 weight %, aged 3-months), 2.7 ± 0.1 μm; in data set [6] (2 weight %, 24 hours) it was 1.6 ± 0.2 μm; in data set [6] (2 weight %, aged 3-months), 2.0 ± 0.1 μm. Also, the “Oil displacement activity (diameter of the clearing zone)” value in data set [4] (setting [12]) came out at 0.65 ± 0.21 cm; in data set [4] (Louisiana Crude on sea water), 0.5 ± 0.14 cm; in data set [4] (Prudhoe Bay Crude on sea water), 1.2 ± 0.42 cm.

Regarding TWEEN ® 60 [reference compound], the “Emulsion Droplet Size” value in data set [2] (lemon oil/water 1/99, sonication 120 sec, 1 Month) worked out at 233 nm; in data set [2] (setting [14]) it was 173 nm.

Rhamnolipid [reference compound]: the “Emulsion Droplet Size” value in data set [2] (setting [14]) worked out at 379 nm.

As to `CCCCOC(=O)/C=C/CCCCCCCC(=O)OC1C(COC(C)=O)OC(OC2C(OC(C)CCCCCC/C=C/C(=O)OCCCC)OC(COC(C)=O)C(O)C2O)C(O)C1O` (stereo not drawn) [Compound 41], in data set [1] (setting [13]), the emulsion type result is listed as “water-in-oil emulsions” and the “time the emulsions were stable” value was at least 6 weeks.
